From paper PMC12095047, “Transport of phenoxyacetic acid herbicides by PIN-FORMED auxin transporters” (Nature Plants, 2025)
Several values for one entry are separate records, joined by “and”; a condition that tells them apart may be missing. Identical values can stand only once. Like-named read-outs stand apart in the source and are kept apart here.

Tests used:
PIN8 = target: T1, PIN8 (Arabidopsis thaliana, UniProt Q9LFP6); experiment: SSM electrophysiology, KD by inhibition of the NPA binding current
T1 construct: made in house
T1 sequence (Q9LFP6 1-367): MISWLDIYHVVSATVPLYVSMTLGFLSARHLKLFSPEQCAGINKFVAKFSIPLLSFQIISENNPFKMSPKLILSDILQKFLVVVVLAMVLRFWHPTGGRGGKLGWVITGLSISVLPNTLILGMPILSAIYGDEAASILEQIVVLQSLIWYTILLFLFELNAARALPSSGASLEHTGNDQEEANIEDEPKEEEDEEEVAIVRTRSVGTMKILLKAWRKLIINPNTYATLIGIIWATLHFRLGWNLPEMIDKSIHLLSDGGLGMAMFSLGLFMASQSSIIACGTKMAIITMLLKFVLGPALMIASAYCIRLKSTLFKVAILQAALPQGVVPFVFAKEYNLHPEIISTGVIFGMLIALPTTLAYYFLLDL
Protocol: (§1) SSM, using a SURFE2R N1 from Nanion Technologies, was conducted as described. In brief, soy polar lipid mix (38% phosphatidyl choline, 30% phosphatidyl ethanolamine, 18% phosphatidyl inositol, 7% phosphatidic acid and 7% other soy lipids) and 1-palmitoyl-2-oleoyl-sn-glycero-3-phosphocholin were purchased from Avanti. Liposomes were prepared in Ringer solution without Ca^2+ (115 mM NaCl, 2.5 mM KCl, 1 mM NaHCO3, 10 mM HEPES pH7.4, 1 mM MgCl2) and homogenized using a Lipsofast (Avestin) with a […]. Triton X-100 was added to the liposomes to a final concentration of 1% (v/v). Protein was added to liposomes to a calculated lipid-to-protein ratio (LPR) of 10 unless stated otherwise. The detergent was removed using 400 mg ml^−1 Bio Beads (BioRad) overnight at 4 °C in a rotary shaker. Proteoliposomes were frozen in liquid nitrogen and kept at −80 °C until use. Proteoliposomes were diluted 1:5 in Ringer solution without Ca^2+, sonicated five times and then applied to the sensors by centrifugation (30 min, 3,000 g, 4 °C). Non-activating buffer was Ringer solution without Ca^2+ as described unless specified otherwise, and activating buffer contained the substrate of interest. In most instances we used a single-solution exchange experiment. In this case proteoliposomes, immobilized on the supported membrane, are kept in non-activating buffer as specified. At the beginning of the experiment the non-activating buffer is replaced with fresh identical non-activating buffer, and after 1 s, activating buffer (same buffer containing substrate) is added. After another second, the buffer is replaced with non-activating buffer again. Current response is recorded throughout the entire 3 s. For competition or inhibition, the respective compound was present in non-activating and activating solutions. Each experiment was performed on at least two individual sensors. On each sensor each measurement consists of three technical replicates where the mean is calculated. KD values were determined as described previously. Briefly, the binding current induced by 100 µM NPA was recorded in the presence of different concentrations of the substrate under investigation ranging between 0 µM and 1,000 µM present in the activating solution and the non-activating solution (Extended Data Fig. 5b). […] The maximum peak current was then plotted as a function of the concentration of the substrate under investigation and plotted against the degree of inhibition and fitted with a one-site binding model using GraphPad Prism V10.4.1 The half maximal concentration corresponds to the KD of the substrate under investigation.

[1] = target: T2, wild-type PIN8 proteoliposomes (Arabidopsis thaliana, UniProt Q9LFP6); experiment: SSM electrophysiology, peak width (FWHM) of current response at LPR10 and LPR50; type: biochemical; details: for Rel. FWHM (% of LPR10): replicates
T2 construct: made in house
T2 sequence (Q9LFP6 1-367): T1 sequence (Q9LFP6 1-367)
Protocol: as §1

A. thaliana PIN8 = target: T3, A. thaliana PIN8 (Arabidopsis thaliana, UniProt Q9LFP6); experiment: SSM electrophysiology, peak current response on PIN8 proteoliposomes; type: biochemical; details: 100 μM 2,4-D, 20 µM NPA
T3 construct: made in house
T3 sequence (Q9LFP6 1-367): T1 sequence (Q9LFP6 1-367)
Protocol: as §1

PIN8 N223A = target: T4, PIN8 N223A (Arabidopsis thaliana, UniProt Q9LFP6, N223A); type: biochemical; details: PIN8 N223A, Michaelis–Menten fit
T4 construct: made in house
Protocol: as §1
The protocol for expression and purification of AtPIN8 protein (Uniprot: Q9LFP6) in lauryl maltose neopentyl glycol was described previously. All point mutants were generated using Q5 Site-Directed mutagenesis kit (New England Biolabs). The C-flat Holey Carbon grids (CF-1.2/1.3, Cu-300 mesh) were glow-discharged for 45 s at 15 mA in a GloQube Plus (Quorum). […] After 1 h of incubation on ice, the sample was centrifuged at 16,000 g for 15 min before blotting to remove precipitation. A drop of 4 µl of each sample was applied to the glow-discharged grids, blotted with a Vitrobot Mark IV (ThermoFisher Scientific) using the following settings (temperature 4 °C, 100% humidity, blot time of 4 s, blot force −1) and vitrified in liquid ethane.

[2] = 50 µM substrate, 100 µM NPA, individual sensors, read-out: Rel. Inhibition of NPA peak currents
[3] = 100 µM substrate, 100 µM NPA, individual sensors, read-out: Rel. Inhibition of NPA peak currents
[4] = 250 µM substrate, 100 µM NPA, individual sensors, read-out: Rel. Inhibition of NPA peak currents
[5] = 500 µM substrate, 100 µM NPA, individual sensors, read-out: Rel. Inhibition of NPA peak currents
[6] = 1000 µM substrate, 100 µM NPA, individual sensors, read-out: Rel. Inhibition of NPA peak currents
[7] = sheet F2A (Fig. 2a, KD of substrate binding), individual sensors, read-out: Peak current
[8] = 20 µM substrate, 100 µM NPA, individual sensors, read-out: Rel. Inhibition of NPA peak currents
[9] = Peak current, sheet F2A (Fig. 2a, KD of substrate binding), individual sensors
[10] = read-out: Rel. Inhibition of NPA peak currents, 50 µM substrate, 100 µM NPA, individual sensors
[11] = read-out: Rel. Inhibition of NPA peak currents, 100 µM substrate, 100 µM NPA, individual sensors
[12] = read-out: Rel. Inhibition of NPA peak currents, 250 µM substrate, 100 µM NPA, individual sensors
[13] = read-out: Rel. Inhibition of NPA peak currents, 500 µM substrate, 100 µM NPA, individual sensors
[14] = read-out: Rel. Inhibition of NPA peak currents, 1000 µM substrate, 100 µM NPA, individual sensors

T4 sequence (Q9LFP6 whole entry N223A): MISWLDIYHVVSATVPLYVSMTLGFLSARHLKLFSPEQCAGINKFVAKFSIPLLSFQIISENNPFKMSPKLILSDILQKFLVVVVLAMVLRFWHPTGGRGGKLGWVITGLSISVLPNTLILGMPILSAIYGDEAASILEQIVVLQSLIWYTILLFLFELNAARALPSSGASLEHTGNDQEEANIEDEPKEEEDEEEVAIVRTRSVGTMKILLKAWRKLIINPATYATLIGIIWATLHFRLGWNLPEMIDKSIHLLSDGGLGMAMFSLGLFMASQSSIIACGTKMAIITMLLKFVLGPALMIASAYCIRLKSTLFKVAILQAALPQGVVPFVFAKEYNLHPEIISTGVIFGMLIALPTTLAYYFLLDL

SMILES	inhibition at 50 µM (PIN8; [2])	inhibition at 100 µM (PIN8; [3])	inhibition at 250 µM (PIN8; [4])	inhibition at 500 µM (PIN8; [5])	inhibition at 1000 µM (PIN8; [6])	Kd (PIN8; [7])	inhibition at 20 µM (PIN8; [8])	binding affinity to PIN8 in words (PIN8)	Kd (PIN8; [9])	inhibition at 250 µM (PIN8; [12])	inhibition at 500 µM (PIN8; [13])	inhibition at 1000 µM (PIN8; [14])	Rel. FWHM (% of LPR10) ([1]; LPR10)	Rel. FWHM (% of LPR10) ([1]; LPR50)	further results
Cc1ccccc1OCC(=O)O [2-MPA, 2-methylphenoxyacetic acid]	13%	27.5%	53.9%	74.7%	82.9%	284 µM and 209 µM and 256 µM	–	–	–	–	–	–	–	–	–
Cc1ccc(OCC(=O)O)c(C)c1 [2,4-DMPA, 2-(2,4-dimethylphenoxy)acetic acid]	21.8%	37%	61.3%	78.8%	92.8%	205 µM and 139 µM and 178 µM	9.25%	–	–	–	–	–	–	–	Kd (PIN8; inhibition of peak current elicited by 100 µM NPA, read-out: KD of substrate binding by PIN8): 174 ± 33 µM
Cc1cc(Cl)ccc1OCC(=O)O [MCPA, 2-methyl-4-chlorophenoxyacetic acid]	–	–	–	–	–	–	–	intermediate affinity	149 µM and 159 µM and 103 µM	65.4%	78.3%	88.6%	–	–	inhibition at 50 µM (PIN8; [10]): 25.1%; inhibition at 100 µM (PIN8; [11]): 41.7%
Cc1ccc(OCC(=O)O)cc1 [4-MPA, 4-methylphenoxyacetic acid]	–	12.1%	25.7%	40.8%	58.3%	710 µM and 614 µM and 521 µM	–	–	–	–	–	–	–	–	inhibition at 2000 µM (PIN8; 2000 µM substrate, 100 µM NPA, individual sensors, read-out: Rel. Inhibition of NPA peak currents): 72.8%
O=C(O)CCc1ccc(Cl)cc1Cl [2,4-DPP, 3-(2,4-dichlorophenyl)-propionic acid]	51.9%	63.6%	77.8%	77.9%	–	18.1 µM and 22.4 µM and 23.3 µM	37.2%	higher affinity than 2,4-D	–	–	–	–	–	–	inhibition at 5 µM (PIN8; 5 µM substrate, 100 µM NPA, individual sensors, read-out: Rel. Inhibition of NPA peak currents): 15.1%
O=C(O)COc1ccccc1 [PA, phenoxyacetic acid]	–	–	–	–	–	485 µM	–	–	605 µM and 377 µM	30.3%	47.3%	60.5%	–	–	–
O=C(O)COc1cc(Cl)c(Cl)cc1Cl [2,4,5-T, 2,4,5-trichlorophenoxyacetic acid]	–	–	–	–	–	8.98 µM	–	highest affinity	9.28 µM	91%	95.3%	98.4%	–	–	inhibition at 1 µM (PIN8; read-out: Rel. Inhibition of NPA peak currents, 1 µM substrate, 100 µM NPA, individual sensors): 11.8%; inhibition at 5 µM (PIN8; read-out: Rel. Inhibition of NPA peak currents, 5 µM substrate, 100 µM NPA, individual sensors): 35.9%; inhibition at 20 µM (PIN8; read-out: Rel. Inhibition of NPA peak currents, 20 µM substrate, 100 µM NPA, individual sensors): 65.7%; inhibition at 50 µM (PIN8; [10]): 78.2%; inhibition at 100 µM (PIN8; [11]): 87.3%
O=C(O)COc1ccc(Cl)cc1Cl [2,4D]	–	–	–	–	–	–	–	–	–	–	–	–	1.043 % of LPR10 (2×) and 0.913 % of LPR10	1.565 % of LPR10 and 1.304 % of LPR10 and 1.239 % of LPR10 and 1.63 % of LPR10	–
O=C(O)c1ccccc1C(=O)Nc1cccc2ccccc12 [NPA, 1-N-naphthylphthalamic acid]	–	–	–	–	–	–	–	–	–	–	–	–	0.9324 % of LPR10 and 1.054 % of LPR10 and 1.014 % of LPR10	0.6892 % of LPR10 and 0.7297 % of LPR10 and 0.7703 % of LPR10	effect on the PIN8 current response to 2,4-D (A. thaliana PIN8): inhibited; peak width of SSM-based current response as a function of lipid-to-protein ratio (LPR) ([1]; LPR10 versus LPR50): does not change with LPR
O=C(O)COc1ccccc1Cl [2-CPA, 2-chlorophenoxyacetic acid]	33.3%	57%	–	94.3%	99.8%	106 µM and 112 µM and 101 µM	19.9%	high affinity, comparable to that of IAA and 2,4-D	–	–	–	–	0.9412 % of LPR10 and 1.059 % of LPR10 and 1 % of LPR10	1.824 % of LPR10 (2×) and 1.235 % of LPR10 and 1.647 % of LPR10	Imax (PIN8 N223A): 3 ± 0.1 nA and 2.6 ± 0.1 nA; EC50 (PIN8 N223A; No transport = model could not be fit, read-out: EC50 of peak current response): 263 µM
